This note sets out measurements from a melting point compilation (Tetko et al.; mined from patent text by program, amines drawn as free bases though some values may be those of a salt).

As for `N=C(NO)c1ccc(-c2ccc(O)c(-c3nc4cc(C(=N)NO)ccc4[nH]3)c2)cc1`, the melting point lay within 319 to 322 °C.

On to `O=C1CC(C(F)(F)F)CC(=O)N1c1ccc(Br)cc1`, for which the melting point lay in the range of 163 to 164 °C.

`CC(C)(C)OC(=O)CN1CC(c2ccco2)SCC(N2C(=O)c3ccccc3C2=O)C1=O` (configuration not stated) yielded a melting point of 158 to 161 °C.

In turn, `CC(=O)OCC1C(C(=O)O)C1(C)C` (configuration not stated) gave a melting point of 78 to 79 °C.

The compound `O=C(Cc1ccc(C(=O)O)cc1)Nc1cccc(/C=C/c2nc(C3CCC3)cs2)c1` registered a melting point of 262 to 263 °C.

As for `CCOC(=O)CN1c2ccccc2N(C)C(=O)c2cccnc21`, the melting point is 99 to 100 °C.

For the compound `Clc1ccc(I)c(CBr)c1`, the melting point was in the range of 75 to 79 °C.

`O=c1[nH]nc(-c2cccc(OCc3csc(-c4ccccc4F)n3)c2)o1` came in with a melting point of 198 to 202 °C.

`CN1C(=O)C[C@@H](c2ccccc2)[C@H]1C(=O)c1ccccc1`: the melting point fell in the range of 115 to 116 °C.

For `CCCNc1cc(=O)[nH]c(-c2ccccc2OCCC)n1`, the melting point fell in the range of 172 to 173 °C.

On to `COc1cc(COc2cc(/C=C/c3cscn3)n(-c3ccccc3)n2)ccc1OCc1nc(-c2ccco2)oc1C`, for which the melting point lay in the range of 154 to 155 °C.

In turn, `COc1ccc(O)c(CSc2nc(C)cn2C)c1` returned a melting point of 111 to 112 °C.

In the case of `CCOC(=O)c1cc2cc(N3CCN(C(=O)OC(C)(C)C)CC3)ccc2o1`, the melting point fell in the range of 116 to 118 °C.

`CCCCCCCCCCCCCCCC(=O)Nc1cc([N+](=O)[O-])ccc1O` yielded a melting point of 146 to 148 °C.

As to `O=C(O)CCC(CS(=O)(=O)c1ccc2ccccc2c1)C(=O)N(CCC1CCCCC1)CCC1CCCCC1` (configuration not stated), the melting point was 138 to 140 °C.

For `O=c1ccc(S(=O)(=O)n2nc(Cl)c3ccccc32)n[nH]1`, the melting point lay in the range of 238 to 239 °C.

On to `Cc1cc(F)cc2c1-c1ccc(F)cc1C21NC(=O)NC1=O` (configuration not stated), for which the melting point was more than 320 °C.

Regarding `Cc1ncc(C(O)=S)cc1OC(C)C`, the melting point is 154 to 155 °C.

`C[C@H]([C@H](O)c1ccc2c(c1)OC(c1ccccc1)(c1ccccc1)O2)N1CCC(O)(c2ccccc2)CC1` (relative stereo) gave a melting point of 224 °C.

Regarding `COC(=O)CCc1cc2c(Cl)c(Cl)ccc2n1S(=O)(=O)c1ccccc1`, the melting point worked out at 142 °C.

For `CC1CCN(Cc2cc(COc3cccc4c3CN(C3CCC(=O)NC3=O)C4=O)on2)CC1` (configuration not stated), the melting point was 168 to 170 °C.

For the compound `COCCCn1c(=O)[nH]c2ncc(-c3ccc(O)cc3)nc21`, the melting point was in the range of 208 to 210 °C.

Turning to `CN=C(NC#N)C1=CC2(CCOCC2)Oc2ccc([N+](=O)[O-])cc21`, the melting point lay in the range of 293 to 294 °C.

Regarding `C[C@]1(N2C(=O)c3cccc(OCc4ccc(CN5CCOCC5)cc4)c3C2=O)CCC(=O)NC1=O`, the melting point is 178 to 180 °C.

With `CCOC(=O)/C=C/c1cn(Cc2cc(OCc3ccccc3)cc(OCc3ccccc3)c2)cc1-c1ccccc1`, the melting point was in the range of 98 to 99 °C.

Compound `CCC(CC)c1nc(CN(C)C(=O)N[C@H](C(=O)N[C@@H](Cc2ccccc2)C[C@H](O)[C@H](Cc2ccccc2)NC(=O)OCc2cncs2)C(C)C)cs1` registered a melting point of 64 to 66 °C.

For the compound `CS(=O)(=O)c1ccc(N2CCC3(CC2)Nc2cc(Cl)ccc2C(=O)O3)cc1`, the melting point lay in the range of 193 to 194 °C.

`CN(Cc1ccccc1)c1ncnc2c(N3CCS(=O)CC3)nc(N3CCNCC3)nc12` came in with a melting point of 214 to 215 °C.

`CCCC1CCc2c3c(c(F)c(F)c2O1)OC(C)C3` (configuration not stated) yielded a melting point of 87 °C.

For `CC(C)n1nc(-c2c(N)nc(N)nc2-c2ccccc2)ccc1=O`, the melting point fell in the range of 258 to 260 °C.

`O=C1C(=O)c2ccc(Br)cc2C2=C1SCC1(CCN(Cc3ccc(F)cc3)CC1)O2` displayed a melting point of 210 to 211 °C.

The compound `CONS(=O)(=O)c1ccc(Cl)c(Cl)c1` registered a melting point of 146 to 147 °C.

`CCOC(=O)c1ccc(N2CCC(NC[C@H](O)COc3ccc(O)c(S(=O)(=O)NC)c3)CC2)cc1`: the melting point was determined as 87 °C.

Regarding `COC(=O)c1sc2cccc(Cl)c2c1Br`, the melting point lay in the range of 120 to 122 °C.

`FC(F)(F)c1ccc(-c2cc(C3CC3)cc(Cl)n2)cc1` showed a melting point of 89 to 93 °C.

In turn, `CCC(O)(CC)CCN1CCC(c2noc3cc(F)ccc23)CC1` had a melting point of 50 to 53 °C.

Compound `CC(C)C(=O)Oc1ccc(C(=O)c2ccc(OC(=O)C(C)C)cc2)cc1` registered a melting point of 144 °C.

`C=C(C)[C@@H]1CC[C@]2(C(=O)O)CC[C@]3(C)[C@H](CC[C@@H]4[C@@]5(C)CC[C@H](OC(=O)[C@H]6C[C@@H](C(=O)O)C6(C)C)C(C)(C)[C@@H]5CC[C@]43C)[C@@H]12` showed a melting point of 308 to 310 °C.

With `O=c1ccc2cccc(-c3cccc4ccccc34)c2[nH]1`, the melting point was in the range of 198 to 199 °C.

The compound `CCN(c1nc(C)cc(-c2ccccc2Cl)n1)c1c(Br)cc(N(C)C)cc1OC` returned a melting point of 131 to 132 °C.

In turn, `CCCCCCCCCCCCCCCC(=O)CSC` gave a melting point of 38 to 40 °C.

In turn, `O=c1[nH]c2cc(NO)ccc2c(=O)n1CCCCN1CC=C(c2ccccc2)CC1` came in with a melting point of 187 to 189 °C.

On to `N#CC(C#N)=Cc1ccc(O)c(O)c1`, for which the melting point was 225 °C.

Take `NS(=O)(=O)c1cccc(NC(=O)c2cnn3c(C(F)F)cc(-c4ccc(OC(F)(F)F)cc4)nc23)c1`: the melting point was 231 °C.

In turn, `O[C@H]1CC[C@H](n2cnc(-c3ccc(F)cc3)c2-c2ccnc(Nc3ccccc3)n2)CC1` showed a melting point of 204 to 206 °C.

Compound `Cc1cccc2nc3c(nc12)C=CCC3=O` gave a melting point of 133 to 135 °C.

The compound `COc1ccc(C(c2ccc(N(C)C)cc2)c2ccc(N(C)C)cc2C(=O)O)cc1` (configuration not stated) yielded a melting point of 185 to 190 °C.

As to `CC(C)(c1cc(F)cc([N+](=O)[O-])c1O)c1cc(Cl)cc([N+](=O)[O-])c1O`, the melting point stood at 160 °C.

Take `CN(C)CC(=O)Nc1ccccc1N`: the melting point was in the range of 119 to 121 °C.

`COc1ccc2c(c1N)C(CCNC(C)=O)CC2` (configuration not stated): the melting point lay within 94 to 97 °C.

`O=[N+]([O-])c1ccc(CS(=O)(=O)CCO)cc1CS(=O)(=O)CCO` yielded a melting point of 211 to 212 °C.

Turning to `CN(C)c1cccc(C(=O)NC2CCN(C(c3ccccc3)c3ccccc3)CC2)c1[N+](=O)[O-]`, the melting point is 176 °C.

Compound `CSc1nc(-c2ccc(N)cc2)c[nH]1` showed a melting point of 85 to 86 °C.

The compound `COC(=O)c1cc(Cl)cc2c1OCCN2` showed a melting point of 60 to 61 °C.

On to `O=C(N1CCOCC1)C12CC(CN1)C2`, for which the melting point is 97.5 to 98 °C.

As to `C=C(CO)[C@H](C(=O)OC(c1ccccc1)c1ccccc1)N1C(=O)[C@@H]2N=C(c3ccccc3)O[C@@H]21`, the melting point is 100 to 104 °C.

Take `Cc1ccc(C2c3c(C)c(N4CCN(c5ccccn5)CC4)c(C)c(C)c3OC2(C)C)cc1` (configuration not stated): the melting point was in the range of 190 to 191 °C.

Turning to `COC(=O)c1ccc2c(c1)C(=O)c1ccc(C(=O)OC)cc1C2=O`, the melting point was found to be 260 °C.

The compound `COCCN(C)C1CCN(c2ccc(N)cc2C#N)CC1` returned a melting point of 88 °C.

In turn, `COCc1cccc2oc(C(=O)O)c(C)c12` displayed a melting point of 164 to 166 °C.

Consider `COCc1ccc(CC(C)NCC(O)c2ccc(O)c(CO)c2)cc1` (configuration not stated), for which the melting point was in the range of 81 to 92 °C.

On to `NS(=O)(=O)c1cc2ccc(=O)[nH]c2s1`, for which the melting point was in the range of 306 to 308 °C.

Consider `Clc1cccc(Cl)c1NCC1CC1`, for which the melting point is 149 to 158 °C.

`COC(=O)[C@H]1O[C@H]1C(=O)N(CC(=O)OC(C)(C)C)c1ccc(OC)cc1`: the melting point was found to be 89 °C.

Regarding `COC(=O)CCc1ccc(-n2c(C)c(C)[nH]c2=O)cc1`, the melting point lay in the range of 152 to 154 °C.

On to `CCOC(=O)c1cnc2c(c(C)nc3cc(C)nn32)c1O`, for which the melting point lay within 207 to 208 °C.

Regarding `CC1(C)COCC(C)(C)N1N=O`, the melting point worked out at 47 °C.

`OC(Cn1cncn1)(c1ccc(F)cc1)C1(Cl)CC1` (configuration not stated) yielded a melting point of 121 °C.

`ClCc1ncc(-c2ccccc2)cc1Cl` displayed a melting point of 74 to 75 °C.

`CN(CC(=O)O)C[C@@H]1CC(c2ccc(-c3ccc(N4C[C@H](Cn5ccnn5)OC4=O)cc3F)cn2)=NO1` registered a melting point of 212 to 218 °C.

The compound `CCOC(=O)c1csc(-c2ccc3cc(C(=O)OCc4ccccc4)c(C45CC6CC(CC(C6)C4)C5)cc3c2)c1` registered a melting point of 98 to 100 °C.

On to `N#CC1CN(C(=O)[C@H](NC(=O)c2c[nH]c3ncc(-c4ccc(N5CCOCC5)cc4)nc23)C2CC2)C1`, for which the melting point fell in the range of 186 to 192 °C.

Compound `Cc1ccccc1-c1cc(Cl)ncc1C#N` displayed a melting point of 112 °C.

Take `Cc1oc(-c2ccccc2)nc1CCOc1ccc(COc2ccccc2CC(=O)O)cn1`: the melting point was in the range of 159 to 160 °C.

As for `COC(=O)c1ccc(S(C)(=O)=O)c(C=O)c1Cl`, the melting point was in the range of 98 to 105 °C.

In turn, `CCOc1cc(Cl)ccc1C=NNC(=N)NN=Cc1ccc(Cl)cc1OCC` came in with a melting point of 180 to 182 °C.

On to `CC(=O)NCC1CC(c2ccc(C3=CCN(C(=O)CO)CC3)cc2)=NO1` (configuration not stated), for which the melting point was in the range of 115 to 118 °C.

Consider `CCOC(=O)C1=C(CCN2C(=O)c3ccccc3C2=O)NC(CCN2C(=O)c3ccccc3C2=O)=C(C(=O)OCC)C1c1ccccc1Cl`, for which the melting point stood at 170 °C.

Consider `COc1cccc(C(=O)NCCCCCCCNC(=O)c2cccc(OC)c2)c1`, for which the melting point lay within 109 to 112 °C.

The compound `CCn1nc(-c2sc(C(=O)NCc3ccccn3)nc2-c2ccccc2)ccc1=O` showed a melting point of 169 to 170 °C.

`N#CCCCOc1ccc(CNc2ccc(-n3nc(-c4cccnc4)cc3C#N)cc2)cc1` displayed a melting point of 128 to 129 °C.

On to `Cn1nc(C#Cc2ccccc2)ccc1=O`, for which the melting point was in the range of 118 to 120 °C.

As for `CC(C)C(=O)N(C(=O)N(C)C)c1snc(C(C)C)c1C#N`, the melting point was in the range of 127 to 129 °C.

The compound `O=C(NCc1cc(C(F)(F)F)cc(C(F)(F)F)c1)c1c(-c2ccccc2)c2cccnc2c(=O)n1CCCO` displayed a melting point of 129 to 130 °C.

In turn, `CC(=O)C1(c2cccc(OCc3ccc4c(ccc(=O)n4C)c3)c2)CCOCC1` had a melting point of 125 to 126 °C.

In turn, `CC(C)(C)c1ccc(Sc2cccc(C=C3SC(=S)NC3=O)c2)cc1` displayed a melting point of 188 to 190 °C.

In turn, `COc1ccc(C(=O)c2ccc(Cl)nc2)c(O)c1` had a melting point of 138 to 139 °C.
